Assay results: patent publication US7560227B2, “Biomarkers of vulnerable atherosclerotic plaques and methods of use” (University of Massachusetts, priority 2005, dated 2009)
Where a SMILES comes first, the peptide text is derived from it. Bridges are numbered along the chain shown (N, C = ends). Where no end group is shown, it is not given here.

Assays:
[1] = test system: LS-174T colon cancer cells; assay: Binding of 99mTc-labeled phage to LS-174T colon cancer cells in vitro; assay type: cell-based; settings: for Relative Binding: Table 6, relative to control phage A3-12; for Binding compared to the control phage (A3-12): 6×10^5 cells per 50 μl, ~1.5×10^11 virions 99mTc-labeled phage
Description: For in vitro studies, LS-174T colon cancer cells, known to express the TAG-72 protein were incubated at a fixed ratio of cells (6×10^5 per 50 μl) to ^99mTc-labeled phage, ˜1.5×10^11 virions.

LS-174T tumor cubes = assay: Binding of 99mTc-labeled phage to LS-174T solid tumor cubes; settings: ~1 mm tumor cubes incubated with serial dilutions of 99mTc-labeled phage
Description: Since TAG-72 expression is known to be higher in solid tumors than cells from culture, LS-174T cells were grown in nude mice, the resulting tumors removed and cut into ˜1 mm cubes for an assay using solid tumors. In addition to the labeled phage, the ^99mTc-labeled antibody was used to evaluate the level of antigen expression in tumor. For assay the tumor cubes were incubated with serial dilutions of ^99mTc-labeled phage or the ^99mTc-B72.3 antibody.

TAG-72 = assay: Competition of unlabeled phage with 99mTc-labeled B72.3 antibody on LS-174T tumor cubes; assay type: binding; settings: 1 ng 99mTc-labeled B72.3 antibody, serial dilutions of unlabeled phage
Description: To test if phage A3-10 could compete with the B72.3, the LS-174T tumor cubes were incubated with 1 ng of ^99mTc-labeled B72.3 antibody and serial dilutions of unlabeled A3-10 phage. […] Thus, the phage is likely blocking the antibody, an indication of binding to the same target.

myeloperoxidase [2] = molecular target: T1, myeloperoxidase (Homo sapiens, UniProt P05164); assay: Binding of 99mTc-labeled phage clones to 125I-myeloperoxidase, separated on spin column / Sepharose 6B column; settings: for Relative Binding (% bound): 99mTc-phage (10^10 pfu) with 125I-myeloperoxidase (750 ng), 15-30 minutes at 4 degrees Celsius, after subtraction of binding by control phage MPO-4; for Binding to 125I-myeloperoxidase compared with control clone MPO-4 (in words): shift of 125I to higher molecular weight fractions associated with 99mTc-phage
Description: (§1) FIG. 6 is a graphical representation of the results of studies of the binding of several phage clones to ^125-myeloperoxidase where the relative magnitude of binding was MPO-17>MPO-6>MPO-15 >MPO-1 >control (MPO-4). The consensus phage clones were radiolabeled with ^99mTc, using mercaptoacetyltriglycine (MAG3) as chelator, and the myeloperoxidase was iodinated using iodogen. The ^99mTc-phage were incubated with the ^125I-myeloperoxidase for 15-30 minutes, and then separated on a Sepharose 6B column. The shift of ^125I to the higher molecular weight fractions associated with ^99mTc-phage indicated binding.
After three rounds of selection, twenty phage clones were sequenced and four peptides occurring in more than one clone were identified. The phage clones representing the four sequences occurring in more than one clone plus a clone having a sequence that occurred in no other selected clone were amplified, titered and conjugated with NHS-MAG3 for radiolabeling with ^99mTc. See Winnard, P. Jr, et al., Preparation and use of NHS-MAG3 for technetium-99m labeling of DNA, Nucl. Med. Biol. 1997 July; 24(5):425-32. Myeloperoxidase was radiolabeled with ^125I via iodogen and a fixed amount (750 ng) was incubated with a constant number of phage plaque forming units (10^10) of each of the four consensus clones, plus a non-consensus clone as control, each radiolabeled with ^99mTc. Myeloperoxidase was added at what was estimated to be a 10-fold molar excess over peptide. After incubating for 15-30 minutes at 4 degrees Celsius, the binding of myeloperoxidase to each phage clone was determined by separating phage from myeloperoxidase using both a MicroSpin S-200 HR spin column and a Sepharose 6B open mini-column. The ^99mTc counts were used to identify the phage-containing fractions while the 125I counts in those fractions identified the concentration of bound myeloperoxidase. The peptide sequences of the 16 mer cysteine-constrained peptides in the display domain of the PVIII coat protein and the relative binding of four clones (MPO-1, MPO-6, MPO-15 and MPO-17) are listed in Table 2, below.
as §1, with “FIG. 8” for “FIG. 6”, “several bacteriophage” for “several phage”, “to ^125I-myeloperoxidase” for “to ^125-myeloperoxidase”, “was MPO-17>MPO-6>MPO-15>MPO-1>control” for “was MPO-17>MPO-6>MPO-15 >MPO-1 >control”, “using MAG3” for “using mercaptoacetyltriglycine (MAG3)”

myeloperoxidase [3] = molecular target: T1, myeloperoxidase; assay: SE-HPLC (Superose-12) evaluation of twenty-three mer peptide binding to myeloperoxidase; settings: for Shift to a retention time associated with myeloperoxidase: SE-HPLC, Superose-12 column, over incubation time
Description: (§2) FIGS. 7A and 7B are graphical representations of the results an evaluation of twenty- three mer peptide binding by SE-HPLC using a Superose-12 column. […] For example, the UV peak for the enzyme increased from 16% of total protein at 5 mm of incubation to 46% of total protein after 2 h incubation.
as §2, with “results of” for “results”, “of MPO-17 twenty-three” for “of twenty- three”, “mer polypeptide” for “mer peptide”, “5 min” for “5 mm”, “2 hours” for “2 h”

myeloperoxidase [4] = molecular target: T2, myeloperoxidase (Homo sapiens, UniProt P05164); assay: Histological staining of bone marrow tissue slides with biotinylated peptides; settings: biotinylated peptide, anti-biotin antibody, ABC alkaline phosphatase kit, hematoxylin counterstain
T2 construct: Slides of bone marrow tissue were used since they are known to contain myeloperoxidase; from tissue; host or cells: bone marrow tissue slides
T2 sequence (P05164 49-745): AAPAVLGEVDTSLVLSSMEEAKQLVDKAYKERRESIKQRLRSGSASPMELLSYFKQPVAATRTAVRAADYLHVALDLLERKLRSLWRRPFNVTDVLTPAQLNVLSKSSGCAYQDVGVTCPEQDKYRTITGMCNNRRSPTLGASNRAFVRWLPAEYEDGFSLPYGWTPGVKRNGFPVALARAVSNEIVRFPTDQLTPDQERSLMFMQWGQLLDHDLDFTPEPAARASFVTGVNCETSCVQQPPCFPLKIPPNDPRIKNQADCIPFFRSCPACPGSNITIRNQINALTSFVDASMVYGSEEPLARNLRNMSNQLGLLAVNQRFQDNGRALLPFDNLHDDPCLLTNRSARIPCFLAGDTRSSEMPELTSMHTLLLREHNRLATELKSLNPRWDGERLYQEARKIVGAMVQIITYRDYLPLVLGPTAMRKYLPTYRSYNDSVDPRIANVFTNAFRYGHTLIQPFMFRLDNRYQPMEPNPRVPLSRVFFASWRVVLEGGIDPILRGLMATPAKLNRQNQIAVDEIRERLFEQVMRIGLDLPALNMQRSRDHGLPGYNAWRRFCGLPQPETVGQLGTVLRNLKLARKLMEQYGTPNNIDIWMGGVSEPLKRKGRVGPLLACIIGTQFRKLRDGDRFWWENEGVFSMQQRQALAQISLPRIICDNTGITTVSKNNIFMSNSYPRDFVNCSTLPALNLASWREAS
Description: FIGS. 9A-9D show the results of histological studies. Slides of bone marrow tissue were used since they are known to contain myeloperoxidase. Treatments were as follows: Figure 9A, anti-myeloperoxidase antibody followed with biotinylated secondary antibody; FIG. 9B, biotinylated twenty-three mer MPO-17 peptide; FIG. 9C, biotinylated twenty-three mer control peptide; FIG. 9D, incubated with both the biotinylated twenty-three mer MPO-17 peptide and the biotinylated twenty-three mer control peptide, without primary antibody. Each slide was treated with an anti-biotin antibody and the ABC alkaline phosphatase kit (Vector labs) and counterstained with hematoxylin.
The binding of identified peptides to components of plaques was confirmed histologically as follows. Peptide sequences found in multiple selected clones were used to produce peptides using synthetic techniques. Peptides may also be produced using recombinant DNA techniques. The peptides are conjugated with a detectable label, such as biotin using known protocols. The biotin-labeled peptides are used to confirm the binding specificity determined in Example 1 and Example 2 by immunohistochemical analyses of tissue such as vulnerable plaques or tissues rich in components vulnerable plaques that have been exposed to biotin-labeled peptides.
FIGS. 9A-9D show the results of such histological studies. […]

Compound | Relative Binding [1] | Relative Binding (% bound) (myeloperoxidase [2]) [%] | Binding to 125I-myeloperoxidase compared with control clone MPO-4 (in words) (myeloperoxidase [2]) | further results
LKNYCRKCSNRCTPTG [A3-21] | 1 | – | – | –
NPGTCKDKWIECLLNG [A3-10] | 4.3 | – | – | Binding compared to the control phage (A3-12) [1]: 4,3 fold; Phage bound with phage added (LS-174T tumor cubes): linear increase in phage bound with phage added; Activity associated with the binding of 99mTc-B72.3 antibody (TAG-72): decreased with an increase in unlabeled phage added
MNYYCHQTTKTCRTHS [A3-12] | 1 | – | – | Phage bound with phage added (LS-174T tumor cubes): no change in phage bound except at the highest concentration
NLIWCRKEFARCTSDM [A3-19] | 1.5 | – | – | Binding compared to the control phage (A3-12) [1]: about 1.5 fold
TVMLCNPMEQGCRWMC (displayed on f88-4 phage pVIII; Chemically synthesized, clone MPO-15) [f88-4/Cys6 phage clone displaying this 16 mer cysteine-constrained peptide in the pVIII coat protein] | – | 4.5 | binding above the binding of the control clone MPO-4 | Relative Binding (% bound) (myeloperoxidase [2]; listed as MPO-5): 4.5%
AMPVCSLDRKACTAYQ [MPO-1] | – | 3.9 | binding above the binding of the control clone MPO-4 | –
RSGQCHDDTWNCLACV (displayed on f88-4 phage pVIII; Chemically synthesized, clone MPO-17) [f88-4/Cys6 phage clone displaying this 16 mer cysteine-constrained peptide in the pVIII coat protein] | – | 8 | highest binding | –
CC(C)C[C@H](NC(=O)[C@@H]1CSSC[C@H](NC(=O)[C@H](CCC(N)=O)NC(=O)CNC(=O)[C@H](CO)NC(=O)[C@@H](N)CCCNC(=N)N)C(=O)N[C@@H](Cc2c[nH]cn2)C(=O)N[C@@H](CC(=O)O)C(=O)N[C@@H](CC(=O)O)C(=O)N[C@@H]([C@@H](C)O)C(=O)N[C@@H](Cc2c[nH]c3ccccc23)C(=O)N[C@@H](CC(N)=O)C(=O)N1)C(=O)N[C@@H](C)C(=O)N[C@@H](CS)C(=O)N[C@H](C(=O)NCC(=O)NCC(=O)N[C@@H](CO)C(=O)NCC(=O)NCC(=O)NCC(=O)N[C@@H](CS)C(=O)O)C(C)C [MPO-17 twenty-three mer peptide] (H-RSGQCHDDTWNCLACVGGSGGGC-OH; disulfide 5-12 (inferred); N-terminus and C-terminus assumed) | – | – | – | Shift to a retention time associated with myeloperoxidase (myeloperoxidase [3]): gradual shift; UV peak for the enzyme (myeloperoxidase [3]; after 2 hours incubation of peptide with myeloperoxidase): 46 % of total protein; UV peak for the enzyme (myeloperoxidase [3]; at 5 min of incubation of peptide with myeloperoxidase): 16 % of total protein; Staining pattern (myeloperoxidase [4]): staining pattern similar to that seen with the anti-myeloperoxidase antibody
QMKQCWVNTATCWGLSGGSGGGC (cysteine pairing not given here; also: biotinylated) [biotinylated for histology] | – | – | – | Shift to a retention time associated with myeloperoxidase (myeloperoxidase [3]): no shift; Staining pattern (myeloperoxidase [4]; listed as control peptide): Only the bkie hematoxylin stain is observed
HVLGCSYATNSCAHNA (displayed on f88-4 phage pVIII; Chemically synthesized, clone MPO-5) [MPO-6, f88-4/Cys6 phage clone displaying this 16 mer cysteine-constrained peptide in the pVIII coat protein] | – | 5.8 | binding above the binding of the control clone MPO-4 | –
